Legend:
LGR7 (RXFP1) receptor = target: T1, LGR7 (RXFP1) receptor (Homo sapiens, UniProt Q9HBX9); assay: cAMP reporter gene assay (pCRE-β-galactosidase) in LGR7-expressing cells; assay type: cell-based
T1 construct: expressed in transfected cells; host or cells: HEK-293T
T1 sequence (Q9HBX9 1-757): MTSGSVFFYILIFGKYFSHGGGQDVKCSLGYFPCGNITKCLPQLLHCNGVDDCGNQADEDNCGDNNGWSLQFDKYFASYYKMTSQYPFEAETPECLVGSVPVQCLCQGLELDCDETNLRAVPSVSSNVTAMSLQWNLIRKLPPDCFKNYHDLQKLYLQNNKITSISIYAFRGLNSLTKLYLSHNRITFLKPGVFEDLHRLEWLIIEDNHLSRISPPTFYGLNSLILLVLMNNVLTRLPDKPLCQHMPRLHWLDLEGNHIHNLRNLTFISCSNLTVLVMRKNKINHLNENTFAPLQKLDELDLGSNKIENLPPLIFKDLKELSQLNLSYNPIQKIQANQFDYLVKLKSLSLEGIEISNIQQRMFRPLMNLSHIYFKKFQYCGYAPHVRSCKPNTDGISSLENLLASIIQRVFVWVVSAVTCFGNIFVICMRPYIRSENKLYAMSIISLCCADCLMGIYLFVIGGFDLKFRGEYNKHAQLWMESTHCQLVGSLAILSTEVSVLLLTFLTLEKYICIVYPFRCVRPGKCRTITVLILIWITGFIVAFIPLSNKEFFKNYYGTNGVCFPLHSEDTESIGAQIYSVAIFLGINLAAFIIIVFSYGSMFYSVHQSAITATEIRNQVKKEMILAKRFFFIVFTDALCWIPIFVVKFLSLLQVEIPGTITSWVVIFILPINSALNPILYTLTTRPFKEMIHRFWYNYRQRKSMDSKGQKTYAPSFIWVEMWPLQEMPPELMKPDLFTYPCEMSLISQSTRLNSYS
Method: In the present study the inventors investigated the ability of chimeric polypeptides generated herein (see Example 1) to stimulate cAMP production in cells expressing either the LGR7 or LGR8 receptor.
Receptor cAMP signaling was assessed using a cAMP reporter gene assay. […] Transfected cells were incubated with increasing concentrations of peptides for 6 hrs after which the media was aspirated and the cells frozen at −80° C. overnight. The amount of cAMP-driven β-galactosidase expression in each well was determined by incubating the cells in 25 μl of lysis buffer (10 mM Na2HPO4, pH 8.0, 0.2 mM MgSO4, 0.01 mM MnCl2) for 10 minutes, 100 μl of assay buffer (100 mM Na2HPO4, pH 8.0, 2 mM MgSO4, 0.1 mM MnCl2, 0.5% Triton X-100, 40 mM B-mercaptoethanol) for a further 10 minutes before 25 μL of enzyme substrate solution (1 mg/ml chlorophenol red B-D galactopyranoside (Roche) in 100 mM Na2HPO4, pH 8.0, 2 mM MgSO4, 0.1 mM MnCl2) was added to each well and the plate incubated for 3 h or overnight. The absorbance of each well was determined at 570 nm using a Ceres UV900C plate reader (Bio-Tek Instruments, Vermont, USA).
All experiments were repeated at least three times with triplicate determinations within each assay.
Data are presented as the mean±S.E.M. of […] (number performed shown in parentheses in Table 1) performed in triplicate.

LGR7 receptor = target: T2, LGR7 receptor (Homo sapiens, UniProt Q9HBX9); assay: Whole cell [125I]-labelled H2 relaxin competition binding assay
T2 construct: expressed in transfected cells; host or cells: HEK293T
T2 sequence (Q9HBX9 1-757): T1 sequence (Q9HBX9 1-757)
Method: Briefly, HEK293T cells were plated out into 24-well plates (450,000 cells per well) or 48-well plates (225,000 cells per well), and transfected with pcDNA3.1/zeo plasmid containing the receptor of interest the following day as described above in Example 2. […] Non-specific binding was determined by addition of excess unlabelled relaxin (500 nM). Data were analysed using GraphPad Prism.

LGR8 (RXFP2) receptor = LGR8 (RXFP2) receptor (Homo sapiens, UniProt Q8WXD0); assay: cell-based
Chain of LGR8 (RXFP2) receptor (Q8WXD0 whole entry): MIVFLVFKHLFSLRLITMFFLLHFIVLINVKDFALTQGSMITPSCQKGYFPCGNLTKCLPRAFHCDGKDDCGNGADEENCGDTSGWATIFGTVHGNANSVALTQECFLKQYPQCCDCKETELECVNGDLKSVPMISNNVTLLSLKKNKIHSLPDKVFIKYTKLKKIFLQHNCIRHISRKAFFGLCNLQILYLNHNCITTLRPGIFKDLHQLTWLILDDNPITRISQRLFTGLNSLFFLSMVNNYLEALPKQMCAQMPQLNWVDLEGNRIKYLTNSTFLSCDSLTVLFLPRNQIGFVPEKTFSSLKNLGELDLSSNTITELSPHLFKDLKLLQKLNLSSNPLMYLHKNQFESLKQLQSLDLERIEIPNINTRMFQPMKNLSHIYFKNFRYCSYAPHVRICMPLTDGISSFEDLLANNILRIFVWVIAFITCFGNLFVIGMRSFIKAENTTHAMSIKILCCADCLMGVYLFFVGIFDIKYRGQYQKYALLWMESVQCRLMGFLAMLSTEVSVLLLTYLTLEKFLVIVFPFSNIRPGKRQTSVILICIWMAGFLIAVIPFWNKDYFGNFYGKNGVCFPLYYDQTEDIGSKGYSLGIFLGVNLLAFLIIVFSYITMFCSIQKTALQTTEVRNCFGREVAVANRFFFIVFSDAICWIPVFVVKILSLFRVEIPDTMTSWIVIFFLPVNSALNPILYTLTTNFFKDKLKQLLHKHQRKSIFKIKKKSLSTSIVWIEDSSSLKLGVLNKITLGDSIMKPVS
Excerpt: Data are presented as the mean±S.E.M. of at least 1 experiment (number performed shown in parentheses in Table 1) performed in triplicate.

## CC[C@H](C)[C@@H]1NC(=O)[C@H](C)NC(=O)[C@H]([C@@H](C)CC)NC(=O)[C@H](CCC(N)=O)NC(=O)[C@H](C)NC(=O)[C@H](CCCNC(=N)N)NC(=O)[C@H](C(C)C)NC(=O)[C@H](CC(C)C)NC(=O)[C@H](CCC(=O)O)NC(=O)[C@H](CCCNC(=N)N)NC(=O)CNC(=O)[C@@H](NC(=O)[C@H](CC(C)C)NC(=O)[C@H](CCCCN)NC(=O)[C@@H](NC(=O)[C@@H](NC(=O)[C@H](CCC(=O)O)NC(=O)[C@H](CCC(=O)O)NC(=O)[C@H](CCSC)NC(=O)[C@H](Cc2c[nH]c3ccccc23)NC(=O)[C@H](CO)NC(=O)[C@@H](N)CC(=O)O)C(C)C)[C@@H](C)CC)CSSC[C@@H]2NC(=O)[C@@H](NC(=O)[C@H](CO)NC(=O)[C@H](CO)NC(=O)[C@H](CO)NC(=O)[C@H](CC(C)C)NC(=O)CNC(=O)[C@H](C)NC(=O)[C@H](CC(C)C)NC(=O)[C@@H](NC(=O)[C@@H](N)CC(=O)O)C(C)C)CSSC[C@H](NC(=O)CNC(=O)[C@H](Cc3c[nH]c4ccccc34)NC(=O)[C@H](CCCCN)NC2=O)C(=O)N[C@@H](CO)C(=O)N[C@@H](CCCCN)C(=O)N[C@@H](CO)C(=O)N[C@@H](CCC(=O)O)C(=O)N[C@@H]([C@@H](C)CC)C(=O)N[C@@H](CO)C(=O)N[C@@H](CO)C(=O)N[C@@H](CC(C)C)C(=O)N[C@H](C(=O)O)CSSC[C@@H](C(=O)NCC(=O)N[C@@H](CCSC)C(=O)N[C@@H](CO)C(=O)N[C@H](C(=O)N[C@@H](Cc2c[nH]c3ccccc23)C(=O)N[C@@H](CO)C(=O)O)[C@@H](C)O)NC1=O [H2-B/H3-A]
LGR7 (RXFP1) receptor
  EC50: 7.94 nM
LGR7 receptor
  Ki: 158 nM
LGR8 (RXFP2) receptor
  EC50: 4570 nM

## CC[C@H](C)[C@@H]1NC(=O)[C@H](C)NC(=O)[C@H]([C@@H](C)CC)NC(=O)[C@H](CCC(N)=O)NC(=O)[C@H](C)NC(=O)[C@H](CCCNC(=N)N)NC(=O)[C@H](C(C)C)NC(=O)[C@H](CC(C)C)NC(=O)[C@H](CCC(=O)O)NC(=O)[C@H](CCCNC(=N)N)NC(=O)CNC(=O)[C@@H](NC(=O)[C@H](CC(C)C)NC(=O)[C@H](CCCCN)NC(=O)[C@@H](NC(=O)[C@@H](NC(=O)[C@H](CCC(=O)O)NC(=O)[C@H](CCC(=O)O)NC(=O)[C@H](CCSC)NC(=O)[C@H](Cc2c[nH]c3ccccc23)NC(=O)[C@H](CO)NC(=O)[C@@H](N)CC(=O)O)C(C)C)[C@@H](C)CC)CSSC[C@@H]2NC(=O)[C@@H](NC(=O)[C@H](Cc3ccc(O)cc3)NC(=O)[C@H](CCCNC(=N)N)NC(=O)[C@H](C)NC(=O)[C@@H]3CCCN3C(=O)[C@H](CC(N)=O)NC(=O)[C@@H](NC(=O)[C@H](C)NC(=O)[C@H](C)NC(=O)[C@H](C)N)[C@@H](C)O)CSSC[C@H](NC(=O)CNC(=O)[C@H](CO)NC(=O)[C@H](CC(C)C)NC2=O)C(=O)N[C@@H]([C@@H](C)O)C(=O)N[C@@H](CCC(N)=O)C(=O)N[C@@H](CCC(N)=O)C(=O)N[C@@H](CC(=O)O)C(=O)N[C@@H](CC(C)C)C(=O)N[C@@H](CC(C)C)C(=O)N[C@@H]([C@@H](C)O)C(=O)N[C@@H](CC(C)C)C(=O)N[C@H](C(=O)N2CCC[C@H]2C(=O)N[C@@H](Cc2ccc(O)cc2)C(=O)O)CSSC[C@@H](C(=O)NCC(=O)N[C@@H](CCSC)C(=O)N[C@@H](CO)C(=O)N[C@H](C(=O)N[C@@H](Cc2c[nH]c3ccccc23)C(=O)N[C@@H](CO)C(=O)O)[C@@H](C)O)NC1=O [H2-B/INSL3-A]
LGR7 (RXFP1) receptor
  EC50: > 1000 nM
LGR7 receptor
  Ki: 617 nM
LGR8 (RXFP2) receptor
  EC50: < 1000 nM

— patent publication US9056922B2, “Chimeric relaxin polypeptides comprising an A and B chain derived from different relaxin family peptides” (HOWARD FLOREY INSTITUTE OF EX[…] MEDICINE, priority 2007, dated 2015)
